Measured values: patent US20030215472A1, “Methods and compositions employing a dialkyl amide” (priority 2002, published 2003)

What was measured:
[1] = test system: human skin; assay: Irritation and sensitization of human skin; assay type: in vivo; details: at levels effective for suppressing malodor formation
[2] = test system: P. acnes ATCC#11827; assay: MLC by swabbing of the zones, P. acnes; assay type: cell-based, Propoinibacterium acnes; parameters: key: (+): MLC results are recorded as positive or negative for growth; (−): MLC results are recorded as positive or negative for growth
Description: (§1) For MLC Preparation, swabbing of the zones was performed to calculate MLC results. […] These swabs were then placed in TSA or BHIB for incubation. M. luteus tubes were incubated for 48 hours at 30° C. to 35° C. P. acnes tubes were incubated for 5-7 days at 35° C. to 38° C. anaerobically, C. xerosis tubes were incubated aerobically at 36° C. to 38° C. Tubes were inspected visually for growth and indicated below. Numbers indicate the average of the zone sizes on the two plates (in millimeters) as per MIC dilution. MLC results are recorded as positive or negative for growth.

[3] = test system: gram-positive bacteria; assay: Killing and suppressing gram-positive bacteria; assay type: cell-based
[4] = test system: C. xerosis ATCC#373; assay: MLC by swabbing of the zones, C. xerosis; assay type: cell-based, Corynebacterium xerosis; parameters: key: (+): MLC results are recorded as positive or negative for growth; (−): MLC results are recorded as positive or negative for growth
Description: as §1

[5] = test system: P. acnes ATCC#11827; assay: MIC via Zone of Inhibition testing, P. acnes; assay type: cell-based, Propoinibacterium acnes
Description: (§2) For culture preparation, an overnight Tryptic Soy Agar (TSA) culture was grown with M. luteus ATCC #10240. This culture was washed and diluted with saline to 85% transmittance at 530 nm. An overnight anaerobic culture of P. acnes ATCC#11827 was prepared in Brain Heart Infusion Broth (BHIB). This was washed with saline and diluted to 85% transmittance at 530 nm. An overnight aerobic culture of C. xerosis ATCC#373 was also grown in BHIB, washed with saline and diluted to 85% transmittance at 530 nm. These cultures were used as inocula. Three sets of nine different dilutions of sample were prepared for MIC results using TSA or BHIB as follows: (1) 2.0 grams sample+8.0 mL media=1:5 or 20%; (2) 2.0 mL of #1+8.0 mL media=1:25 or 4%; (3) 2.0 mL of #2+8.0 mL media=1:125 or 0.8%; (4) 2.0 mL of #3+8.0 mL media=1:625 or 0.16%; (5) 2.0 mL of #4+8.0 mL media=1:3125 or 0.032%; (6) 2.0 mL of #5+8.0 mL media=1:15625 or 0.0064%; (7) 2.0 mL of #6+8.0 mL media=1:78125 or 0.00128%; (8) 2.0 mL of #7+8.0 mL media=1:390625 or 0.000256%; and (9) 2.0 mL of #8+8.0 mL media=1:1953125 or 0.0000512%.
(§3) The product dilutions were dispensed onto Zone of Inhibition plates. TSA and BHIB plates were prepared by using the base and seed method. Seed consisted of 2.0 mL of inoculum per 20.0 mL of TSA or BHIB used. A single penicylinder placed in the center of the plate when agar was solidified. Each penicylinder was inoculated with 200 μL of the MIC dilutions listed above; this procedure was performed in duplicate. Control plates were performed simultaneously; also using the base and seed method. M. luteus plates were incubated for 48 hours at 30° C. to 35° C. P. acnes plates were incubated for 5-7 days 36° C. to 38° C. anaerobically, C. xerosis plates were incubated aerobically at 36° C. to 38° C. Plates were measured for zones and calculated in millimeters.
as §1

[6] = test system: C. xerosis ATCC#373; assay: MIC via Zone of Inhibition testing, C. xerosis; assay type: cell-based, Corynebacterium xerosis
Description: as §2, §3, §1

[7] = test system: Micrococcus luteus ATCC #10240; assay: MIC via Zone of Inhibition testing, M. luteus; assay type: cell-based
Description: as §2, §3
For MLC Preparation, swabbing of the zones was performed to calculate MLC results. […] These swabs were then placed in TSA or BHIB for incubation. […] MLC results are recorded as positive or negative for growth.

[8] = Solubility in cosmetic solvents; assay type: physicochemical
[9] = test system: Micrococcus luteus ATCC #10240; assay: MLC by swabbing of the zones, M. luteus; assay type: cell-based; parameters: key: (+): MLC results are recorded as positive or negative for growth; (−): MLC results are recorded as positive or negative for growth
Description: as §1

CCCCCCCCCC(=O)N(C)C [dimethyl capramide, N,N-dimethyldecanamide]
irritation of human skin [1]: non-irritating | MLC Results, growth from swabbed zone ([2]; dilution 1:5 (20%)): (−) | MLC Results, growth from swabbed zone ([2]; dilution 1:25 (4%)): (−) | MLC Results, growth from swabbed zone ([2]; dilution 1:125 (0.8%)): (+) | MLC Results, growth from swabbed zone ([2]; dilution 1:625 (0.16%)): (+) | killing and suppressing gram-positive bacteria [3]: effective in killing and suppressing | MLC Results, growth from swabbed zone ([4]; dilution 1:5 (20%)): (−) | MLC Results, growth from swabbed zone ([4]; dilution 1:25 (4%)): (−) | MLC Results, growth from swabbed zone ([4]; dilution 1:125 (0.8%)): (−) | MLC Results, growth from swabbed zone ([4]; dilution 1:625 (0.16%)): (+) | MLC Results, growth from swabbed zone ([4]; dilution 1:3125 (0.032%)): (+) | MIC/Zone of Inhibition, average zone size ([5]; dilution 1:5 (20%)): 21.2 millimeters | MIC/Zone of Inhibition, average zone size ([5]; dilution 1:25 (4%)): 23.8 millimeters | MIC/Zone of Inhibition, average zone size ([5]; dilution 1:125 (0.8%)): 18.0 millimeters | MIC/Zone of Inhibition, average zone size ([5]; dilution 1:625 (0.16%)): 8.1 millimeters | MIC/Zone of Inhibition, average zone size ([6]; dilution 1:5 (20%)): 20.2 millimeters | MIC/Zone of Inhibition, average zone size ([6]; dilution 1:25 (4%)): 13.9 millimeters | MIC/Zone of Inhibition, average zone size ([6]; dilution 1:125 (0.8%)): 17.3 millimeters | MIC/Zone of Inhibition, average zone size ([6]; dilution 1:625 (0.16%)): 8.6 millimeters | MIC/Zone of Inhibition, average zone size ([6]; dilution 1:3125 (0.032%)): 7.2 millimeters | MIC/Zone of Inhibition, average zone size ([7]; dilution 1:5 (20%)): 14.7 millimeters | MIC/Zone of Inhibition, average zone size ([7]; dilution 1:25 (4%)): 14.2 millimeters | MIC/Zone of Inhibition, average zone size ([7]; dilution 1:125 (0.8%)): 13.6 millimeters | solubility ([8]; in cyclomethicone): greater than 50 wt. % | solubility ([8]; in propylene glycol): greater than 50 wt. % | MLC Results, growth from swabbed zone ([9]; dilution 1:5 (20%)): (−) | MLC Results, growth from swabbed zone ([9]; dilution 1:25 (4%)): (+) | MLC Results, growth from swabbed zone ([9]; dilution 1:125 (0.8%)): (+)
